Reference: patent US20160289186A1, “FLUOROMETHYL-SUBSTITUTED PYRROLE CA[…]” (Grunenthal GmbH, priority 2013, published 2016)

The compounds below were run against T1, Human CaV2.2 channels (Homo sapiens, UniProt Q00975) (assay: Fluorescent (FLIPR) assay for CaV2.2 channels using potassium depolarization to induce channel opening). Conditions: 3 μM compound; 30 mM KCl assay buffer (inactivated channel state); HEK293 cells stably expressing human CaV2.2.
T1 construct: expressed in transfected cells; host or cells: HEK293
T1 sequence (Q00975 whole entry): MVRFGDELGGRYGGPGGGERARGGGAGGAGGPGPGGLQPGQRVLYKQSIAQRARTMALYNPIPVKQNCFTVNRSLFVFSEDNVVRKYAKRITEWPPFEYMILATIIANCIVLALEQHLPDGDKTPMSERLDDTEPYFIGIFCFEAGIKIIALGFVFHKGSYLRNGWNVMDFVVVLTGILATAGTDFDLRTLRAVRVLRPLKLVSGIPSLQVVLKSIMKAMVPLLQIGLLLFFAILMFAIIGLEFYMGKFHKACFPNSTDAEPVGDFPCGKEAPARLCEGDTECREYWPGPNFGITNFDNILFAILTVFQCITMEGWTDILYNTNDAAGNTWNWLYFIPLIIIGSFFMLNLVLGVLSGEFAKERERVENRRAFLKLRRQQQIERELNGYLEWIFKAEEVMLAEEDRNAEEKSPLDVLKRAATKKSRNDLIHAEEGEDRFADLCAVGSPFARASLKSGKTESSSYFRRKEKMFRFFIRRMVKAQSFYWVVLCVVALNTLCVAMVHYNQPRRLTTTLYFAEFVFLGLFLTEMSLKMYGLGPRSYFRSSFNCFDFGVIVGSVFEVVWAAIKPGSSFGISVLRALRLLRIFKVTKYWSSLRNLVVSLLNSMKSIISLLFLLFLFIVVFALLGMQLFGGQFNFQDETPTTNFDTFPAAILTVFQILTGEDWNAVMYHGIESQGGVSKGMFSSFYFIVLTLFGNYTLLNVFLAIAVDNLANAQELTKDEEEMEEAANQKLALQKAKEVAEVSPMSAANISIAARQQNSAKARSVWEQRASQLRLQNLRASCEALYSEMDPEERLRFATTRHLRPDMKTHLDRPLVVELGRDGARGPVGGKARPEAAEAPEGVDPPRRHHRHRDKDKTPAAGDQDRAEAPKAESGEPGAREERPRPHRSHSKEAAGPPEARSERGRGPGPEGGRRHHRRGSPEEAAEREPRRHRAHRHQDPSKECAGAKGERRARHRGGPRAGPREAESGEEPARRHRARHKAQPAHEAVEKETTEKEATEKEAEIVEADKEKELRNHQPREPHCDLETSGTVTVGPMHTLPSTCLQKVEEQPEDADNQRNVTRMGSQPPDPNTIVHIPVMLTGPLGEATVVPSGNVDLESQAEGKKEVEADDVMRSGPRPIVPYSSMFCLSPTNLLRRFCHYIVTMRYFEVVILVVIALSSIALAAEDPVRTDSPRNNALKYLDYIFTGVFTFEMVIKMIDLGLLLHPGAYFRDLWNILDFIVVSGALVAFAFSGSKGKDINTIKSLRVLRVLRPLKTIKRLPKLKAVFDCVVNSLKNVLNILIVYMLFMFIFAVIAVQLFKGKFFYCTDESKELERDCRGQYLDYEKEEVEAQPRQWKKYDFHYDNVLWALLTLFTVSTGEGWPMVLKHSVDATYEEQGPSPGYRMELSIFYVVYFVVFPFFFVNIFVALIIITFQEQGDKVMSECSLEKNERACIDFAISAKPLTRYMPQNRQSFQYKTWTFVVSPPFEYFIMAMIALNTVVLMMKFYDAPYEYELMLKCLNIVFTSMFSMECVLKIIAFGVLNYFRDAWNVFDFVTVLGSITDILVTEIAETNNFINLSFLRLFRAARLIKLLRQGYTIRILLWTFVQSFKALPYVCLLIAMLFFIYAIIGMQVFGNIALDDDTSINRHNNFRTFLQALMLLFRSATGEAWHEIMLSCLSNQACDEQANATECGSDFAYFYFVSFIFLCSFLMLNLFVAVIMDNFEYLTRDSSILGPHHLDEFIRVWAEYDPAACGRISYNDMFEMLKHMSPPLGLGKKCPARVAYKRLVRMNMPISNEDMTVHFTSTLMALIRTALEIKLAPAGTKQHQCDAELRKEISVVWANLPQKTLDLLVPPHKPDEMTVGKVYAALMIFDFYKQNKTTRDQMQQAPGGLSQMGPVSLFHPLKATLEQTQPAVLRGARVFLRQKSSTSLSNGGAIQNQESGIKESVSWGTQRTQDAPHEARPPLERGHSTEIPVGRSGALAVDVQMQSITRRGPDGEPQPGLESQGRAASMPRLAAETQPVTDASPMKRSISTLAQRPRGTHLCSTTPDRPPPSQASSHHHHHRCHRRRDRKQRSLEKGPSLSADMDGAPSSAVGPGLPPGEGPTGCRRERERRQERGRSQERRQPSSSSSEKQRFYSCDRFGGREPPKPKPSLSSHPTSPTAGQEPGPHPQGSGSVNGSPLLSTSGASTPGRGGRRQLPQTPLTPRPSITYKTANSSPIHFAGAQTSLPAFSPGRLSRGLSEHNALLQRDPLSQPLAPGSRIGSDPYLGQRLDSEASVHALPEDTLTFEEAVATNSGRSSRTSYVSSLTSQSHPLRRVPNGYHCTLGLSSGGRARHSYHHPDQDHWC
T1 sequence (P54284 whole entry, further chain): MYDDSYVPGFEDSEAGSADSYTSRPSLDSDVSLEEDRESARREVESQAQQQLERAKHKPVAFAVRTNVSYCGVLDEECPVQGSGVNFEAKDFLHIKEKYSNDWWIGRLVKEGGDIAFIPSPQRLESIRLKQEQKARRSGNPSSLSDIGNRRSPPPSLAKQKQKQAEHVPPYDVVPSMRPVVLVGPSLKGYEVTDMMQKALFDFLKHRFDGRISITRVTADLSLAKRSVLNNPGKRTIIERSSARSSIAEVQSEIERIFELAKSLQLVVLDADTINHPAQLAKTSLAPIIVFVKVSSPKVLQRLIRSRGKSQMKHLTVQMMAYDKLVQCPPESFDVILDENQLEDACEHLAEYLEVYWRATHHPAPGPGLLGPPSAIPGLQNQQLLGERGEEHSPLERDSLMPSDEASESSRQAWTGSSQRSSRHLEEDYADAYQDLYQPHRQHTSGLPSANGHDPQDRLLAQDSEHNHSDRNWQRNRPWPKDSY
T1 sequence (P54289 25-1103, further chain): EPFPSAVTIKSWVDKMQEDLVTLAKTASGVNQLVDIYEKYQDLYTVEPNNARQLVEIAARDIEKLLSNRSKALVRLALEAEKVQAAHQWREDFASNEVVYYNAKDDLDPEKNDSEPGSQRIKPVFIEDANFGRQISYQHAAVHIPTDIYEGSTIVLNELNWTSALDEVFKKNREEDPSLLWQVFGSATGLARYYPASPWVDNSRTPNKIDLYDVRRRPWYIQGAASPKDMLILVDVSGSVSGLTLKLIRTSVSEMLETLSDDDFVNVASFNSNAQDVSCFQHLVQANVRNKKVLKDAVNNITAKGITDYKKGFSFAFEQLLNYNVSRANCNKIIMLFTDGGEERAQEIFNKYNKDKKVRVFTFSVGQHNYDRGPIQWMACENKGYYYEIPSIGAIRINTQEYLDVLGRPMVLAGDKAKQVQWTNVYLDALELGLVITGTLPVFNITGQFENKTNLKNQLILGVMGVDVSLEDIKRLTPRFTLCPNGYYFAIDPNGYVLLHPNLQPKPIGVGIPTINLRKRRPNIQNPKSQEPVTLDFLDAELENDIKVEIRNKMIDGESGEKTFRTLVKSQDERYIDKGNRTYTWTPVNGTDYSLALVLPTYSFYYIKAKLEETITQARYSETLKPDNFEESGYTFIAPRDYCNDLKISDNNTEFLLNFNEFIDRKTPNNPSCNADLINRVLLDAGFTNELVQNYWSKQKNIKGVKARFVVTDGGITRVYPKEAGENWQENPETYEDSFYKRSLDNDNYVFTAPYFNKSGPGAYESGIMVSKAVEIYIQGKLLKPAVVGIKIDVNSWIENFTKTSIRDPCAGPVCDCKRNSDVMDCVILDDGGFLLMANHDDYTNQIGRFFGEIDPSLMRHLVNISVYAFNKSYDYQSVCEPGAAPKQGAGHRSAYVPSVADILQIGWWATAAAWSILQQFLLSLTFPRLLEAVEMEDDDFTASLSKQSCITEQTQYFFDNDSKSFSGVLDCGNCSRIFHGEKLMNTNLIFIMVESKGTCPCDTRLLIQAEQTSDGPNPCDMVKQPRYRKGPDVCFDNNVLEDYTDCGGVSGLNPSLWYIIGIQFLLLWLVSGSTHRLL
Type: cell-based
Procedure, shortened: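 HEK293 cells stably co-expressing human CaV2.2 with α2δ and β subunits plus Kir2.3, Fluo-4 loaded; compounds preincubated 15 min at 25 °C in 1 mM or 30 mM KCl buffer (inactivated state), pH 7.4. Depolarized by KCl addition; baseline-normalized peak fluorescence (ex 480/em 535 nm) gave inhibition.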

| SMILES | Activity Category: %-Inhib (CaV2.2) @3 μM @30 mM KCl |
| --- | --- |
| CC(C)Cn1c(C(F)(F)F)cc(-c2ccc(F)cc2)c1C(=O)N(C)Cc1cnc(N(C)C)nc1 [Example 060] | A (%-Inhibition >95%) |

Same assay, conditions: 3 μM compound; 30 mM KCl assay buffer (inactivated channel state); HEK293 cells stably expressing human CaV2.2; read-out: Activity Category: %-Inhib (CaV2.2) @3 μM @30 mM KCl

| SMILES | inhibition at 3 µM [%] |
| --- | --- |
| CN(CC(C)(C)C)C(=O)c1c(-c2ccc(Cl)cc2)cc(C(F)(F)F)n1CC1CCCN1 (stereo not shown) [Example 091, 3-(4-Chlorophenyl)-N-(2,2-dimethyl-propyl)-N-methyl-1-(pyrrolidin-2-yl-methyl)-5-(trifluoromethyl)-1H-pyrrole-2-carboxylic acid amide] | > 95 |
| Cc1c(-c2ccc(Cl)cc2)c(C(=O)N(C)CC(C)(C)C(N)=O)n(C2CC2)c1C(F)(F)F [Example 009, N-(2-Carbamoyl-2-methyl-propyl)-3-(4-chlorophenyl)-1-cyclopropyl-N,4-dimethyl-5-(trifluoromethyl)-1H-pyrrole-2-carboxylic acid amide] | 75 to 95 |
| Cc1cnc(CN(C)C(=O)c2c(-c3ccc(Cl)cc3F)c(C)c(C(F)(F)F)n2C2CC2)cn1 [Example 024, 3-(4-Chloro-2-fluoro-phenyl)-1-cyclopropyl-N,4-dimethyl-N-[(5-methyl-pyrazin-2-yl)-methyl]-5-(trifluoromethyl)-1H-pyrrole-2-carboxylic acid amide] | > 95 |
| Cc1c(-c2ccc(Cl)cc2)c(C(=O)N(C)CC(C)(C)C)n(C2CC2)c1C(F)(F)F [Example 039, 3-(4-Chlorophenyl)-1-cyclopropyl-N-(2,2-dimethyl-propyl)-N,4-dimethyl-5-(trifluoromethyl)-1H-pyrrole-2-carboxylic acid amide] | 75 to 95 |
| Cc1c(-c2ccc(Cl)cc2)c(C(=O)N2CCOCC2)n(CC2(C)CC2)c1C(F)(F)F [Example 087, [3-(4-Chlorophenyl)-4-methyl-1-[(1-methyl-cyclopropyl)-methyl]-5-(trifluoromethyl)-1H-pyrrol-2-yl]-morpholin-4-yl-methanone] | > 95 |
| Cc1noc(C2CCN(C(=O)c3c(-c4ccc(Cl)cc4)c(C)c(C(F)(F)F)n3C3CC3)CC2)n1 [Example 027, [3-(4-Chlorophenyl)-1-cyclopropyl-4-methyl-5-(trifluoromethyl)-1H-pyrrol-2-yl]-[4-(3-methyl-[1,2,4]oxadiazol-5-yl)-piperidin-1-yl]-methanone] | 75 to 95 |
| Cc1c(-c2ccc(Cl)cc2)c(C(=O)N(C)CCS(C)(=O)=O)n(CC2(N)CC2)c1C(F)(F)F [Example 093, 1-[(1-Amino-cyclopropyl)-methyl]-3-(4-chlorophenyl)-N,4-dimethyl-N-(2-methylsulfonyl-ethyl)-5-(trifluoromethyl)-1H-pyrrole-2-carboxylic acid amide] | 75 to 95 |
| Cc1c(-c2ccc(Cl)cn2)c(C(=O)N(C)Cc2ccnn2C)n(C(C)C)c1C(F)(F)F [Example 114, 3-(5-Chloro-pyridin-2-yl)-1-isopropyl-N,4-dimethyl-N-[(2-methyl-2H-pyrazol-3-yl)-methyl]-5-(trifluoromethyl)-1H-pyrrole-2-carboxylic acid amide] | 40 to 75 |
| Cc1c(-c2ccc(Cl)cc2)c(C(=O)N2CC3CC2CO3)n(CC(C)C)c1C(F)(F)F (stereo not shown) [Example 104, [3-(4-Chlorophenyl)-4-methyl-1-(2-methyl-propyl)-5-(trifluoromethyl)-1H-pyrrol-2-yl]-(2-oxa-5-azabicyclo[2.2.1]heptan-5-yl)-methanone] | > 95 |
| Cc1c(-c2ccc(Cl)cc2)c(C(=O)N(C)CC(C)(C)CO)n(CC(C)C)c1C(F)(F)F [Example 055, 3-(4-Chlorophenyl)-N-(3-hydroxy-2,2-dimethyl-propyl)-N,4-dimethyl-1-(2-methyl-propyl)-5-(trifluoromethyl)-1H-pyrrole-2-carboxylic acid amide] | > 95 |
| Cc1c(-c2ccc(Cl)cc2)c(C(=O)N(C)CCS(C)(=O)=O)n(CC(C)C)c1C(F)(F)F [Example 061, 3-(4-Chlorophenyl)-N,4-dimethyl-1-(2-methyl-propyl)-N-(2-methylsulfonyl-ethyl)-5-(trifluoromethyl)-1H-pyrrole-2-carboxylic acid amide] | > 95 |
| CN(C(=O)c1c(-c2ccc(Cl)cc2)cc(C(F)(F)F)n1C1CC1)C1CCOCC1 [Example 015, 3-(4-Chlorophenyl)-1-cyclopropyl-N-methyl-N-tetrahydro-pyran-4-yl-5-(trifluoromethyl)-1H-pyrrole-2-carboxylic acid amide] | 75 to 95 |
| Cc1c(-c2ccc(Cl)cc2)c(C(=O)N2CCOC(C)(C)C2)n(C2CCC2)c1C(F)(F)F [Example 042, [3-(4-Chlorophenyl)-1-cyclobutyl-4-methyl-5-(trifluoromethyl)-1H-pyrrol-2-yl]-(2,2-dimethyl-morpholin-4-yl)-methanone] | 75 to 95 |
| Cc1c(-c2ccc(Cl)cn2)c(C(=O)N2CCN(C(=O)NC(C)(C)C)CC2)n(C(C)C)c1C(F)(F)F [Example 129, N-tert-Butyl-4-[3-(5-chloro-pyridin-2-yl)-1-isopropyl-4-methyl-5-(trifluoromethyl)-1H-pyrrole-2-carbonyl]-piperazine-1-carboxylic acid amide] | 75 to 95 |
| Cc1c(-c2ccc(Cl)cn2)c(C(=O)N(C)C(C)C)n(C(C)C)c1C(F)(F)F [Example 120, 3-(5-Chloro-pyridin-2-yl)-N,1-diisopropyl-N,4-dimethyl-5-(trifluoromethyl)-1H-pyrrole-2-carboxylic acid amide] | 75 to 95 |
| CC1(C)CN(C(=O)c2c(-c3ccc(F)cc3)cc(C(F)(F)F)n2CC2CCCO2)CCO1 (stereo not shown) [Example 080, (2,2-Dimethyl-morpholin-4-yl)-[3-(4-fluorophenyl)-1-(tetrahydro-furan-2-yl-methyl)-5-(trifluoromethyl)-1H-pyrrol-2-yl]-methanone] | 75 to 95 |
| Cc1c(-c2ccc(Cl)cn2)c(C(=O)N(C)C2CCNC2=O)n(C(C)C)c1C(F)(F)F (stereo not shown) [Example 119, 3-(5-Chloro-pyridin-2-yl)-1-isopropyl-N,4-dimethyl-N-(2-oxo-pyrrolidin-3-yl)-5-(trifluoromethyl)-1H-pyrrole-2-carboxylic acid amide] | 40 to 75 |
| O=C(c1c(-c2ccc(Cl)cc2)cc(C(F)(F)F)n1C1CC1)N1CCOCC1 [Example 038, [3-(4-Chlorophenyl)-1-cyclopropyl-5-(trifluoromethyl)-1H-pyrrol-2-yl]-morpholin-4-yl-methanone] | 40 to 75 |
| CN(CC(C)(C)C)C(=O)c1c(-c2ccc(Cl)cc2)cc(C(F)(F)F)n1CC1(C#N)CC1 [Example 100, 3-(4-Chlorophenyl)-1-[(1-cyano-cyclopropyl)-methyl]-N-(2,2-dimethyl-propyl)-N-methyl-5-(trifluoromethyl)-1H-pyrrole-2-carboxylic acid amide] | 75 to 95 |
| Cc1c(-c2ccc(Cl)cc2)c(C(=O)N2CCOC(C)(C)C2)n(C(C)C)c1C(F)(F)F [Example 006, [3-(4-Chlorophenyl)-1-isopropyl-4-methyl-5-(trifluoromethyl)-1H-pyrrol-2-yl]-(2,2-dimethyl-morpholin-4-yl)-methanone] | 75 to 95 |
| Cc1c(-c2ccc(Cl)cc2)c(C(=O)N2CCOCC2)n(CC2CCOCC2)c1C(F)(F)F [Example 097, [3-(4-Chlorophenyl)-4-methyl-1-(tetrahydro-pyran-4-yl-methyl)-5-(trifluoromethyl)-1H-pyrrol-2-yl]-morpholin-4-yl-methanone] | > 95 |
